Test results: paper PMC9279640 (Acta Pharmaceutica Sinica. B, 2021)

Columns and labels:
Type in all cases: binding
mouse TREM2 (mTREM2) [1] = molecular target: T1, mouse TREM2 (mTREM2) (Mus musculus, UniProt Q99NH8); assay: microscale thermophoresis with labelled recombinant TREM2
T1 sequence (Q99NH8 19-227): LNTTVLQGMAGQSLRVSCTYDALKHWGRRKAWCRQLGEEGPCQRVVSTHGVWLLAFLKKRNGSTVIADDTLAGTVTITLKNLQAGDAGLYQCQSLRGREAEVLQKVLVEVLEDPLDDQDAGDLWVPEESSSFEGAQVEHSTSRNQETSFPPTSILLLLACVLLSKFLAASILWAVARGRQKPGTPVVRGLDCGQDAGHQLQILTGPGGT

rat TREM2 (rTREM2) = molecular target: T2, rat TREM2 (rTREM2) (Rattus norvegicus, UniProt A0A6G8MV71); assay: as above
T2 sequence (A0A6G8MV71 19-229): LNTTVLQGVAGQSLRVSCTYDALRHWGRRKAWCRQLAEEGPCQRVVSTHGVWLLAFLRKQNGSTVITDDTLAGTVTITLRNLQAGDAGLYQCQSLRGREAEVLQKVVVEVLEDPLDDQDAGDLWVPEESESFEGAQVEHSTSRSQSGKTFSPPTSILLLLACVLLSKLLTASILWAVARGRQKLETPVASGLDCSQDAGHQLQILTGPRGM

APOE (apolipoprotein E) = APOE (apolipoprotein E) (Homo sapiens, UniProt P02649); assay: microscale thermophoresis with labelled recombinant APOE
human TREM2 (hTREM2) [2] = molecular target: T3, human TREM2 (hTREM2) (Homo sapiens, UniProt Q9NZC2); assay: microscale thermophoresis with labelled recombinant TREM2
T3 sequence (Q9NZC2 19-230): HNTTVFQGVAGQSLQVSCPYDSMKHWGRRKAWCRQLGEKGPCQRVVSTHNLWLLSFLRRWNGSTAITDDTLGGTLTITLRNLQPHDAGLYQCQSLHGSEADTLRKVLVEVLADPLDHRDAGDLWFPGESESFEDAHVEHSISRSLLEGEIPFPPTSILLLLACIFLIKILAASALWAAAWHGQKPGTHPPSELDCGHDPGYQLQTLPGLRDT

mouse TREM2 (mTREM2) [3] = molecular target: T1, mouse TREM2 (mTREM2); assay: microscale thermophoresis
TREM2 D104A (hTREM2) = molecular target: T4, TREM2 D104A (hTREM2) (Homo sapiens, UniProt Q9NZC2, D104A); assay: microscale thermophoresis with labelled TREM2 D104A
T4 sequence (Q9NZC2 19-174 D104A limits assumed): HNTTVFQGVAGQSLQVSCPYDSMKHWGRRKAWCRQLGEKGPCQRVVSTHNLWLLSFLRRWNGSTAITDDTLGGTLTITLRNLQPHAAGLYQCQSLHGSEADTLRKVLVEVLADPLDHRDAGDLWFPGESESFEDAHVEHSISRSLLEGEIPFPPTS

human TREM2 (hTREM2) [4] = molecular target: T3, human TREM2 (hTREM2); assay: microscale thermophoresis

Sequence of APOE (apolipoprotein E) (P02649 19-317): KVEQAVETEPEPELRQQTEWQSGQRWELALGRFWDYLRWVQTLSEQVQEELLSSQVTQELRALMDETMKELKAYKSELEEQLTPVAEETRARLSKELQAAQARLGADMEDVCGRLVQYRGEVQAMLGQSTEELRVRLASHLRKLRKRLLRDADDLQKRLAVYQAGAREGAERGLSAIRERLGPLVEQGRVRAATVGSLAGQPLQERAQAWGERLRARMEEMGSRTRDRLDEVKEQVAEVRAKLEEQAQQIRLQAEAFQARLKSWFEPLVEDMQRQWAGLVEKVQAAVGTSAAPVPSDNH

Structure (SMILES)	Kd (mouse TREM2 (mTREM2) [1]) [µM]	Kd (rat TREM2 (rTREM2)) [µM]	Kd (APOE (apolipoprotein E)) [µM]	Kd (human TREM2 (hTREM2) [2]) [µM]	Kd (mouse TREM2 (mTREM2) [3]) [µM]	Kd (TREM2 D104A (hTREM2)) [µM]	Kd (human TREM2 (hTREM2) [4]) [µM]
CCCCCCCCc1ccc(CC[C@](N)(CO)COP(=O)(O)O)cc1 [FTY720P]	72.6 ± 21	7.17 ± 2.21	15.9 ± 7.41	6.75 ± 1.8			
CCCCCCCCCCCCC/C=C/[C@@H](O)[C@@H](N)COP(=O)(O)O [S1P]		56.8 ± 14	6.64 ± 1.68		64.6 ± 16.6	593 ± 97.6	62.6 ± 11.9
